Reference: patent US20250099609A1 (priority 2023, published 2025)

How the values were obtained:
[1] = test system: osteoclasts; experiment: Osteoclast maturation (DAPI/Phalloidin staining); type: cell-based; conditions: without radiation
Method: This treatment was carried out without exposing the osteoclasts to radiation.

[2] = test system: stem cells; experiment: Stem cell conversion to fat cells after radiation; type: cell-based; conditions: after exposure to radiation (IR 21d)
Method: All treatment was administered with radiation (IR 21d).
Radiation exposure, post-menopausal osteoporosis, and diabetes are conditions that cause stem cells to favor conversion to fat cells instead of conversion to bone cells. This process progresses to tissue dysfunction. Stem cells were treated with P7C3 or with cerium oxide nanoparticles (CNPs) after exposure to radiation. […] All treatment was administered with radiation (IR 21d).

[3] = test system: stem cells; experiment: Bone mineral formation / new bone deposition after radiation (Alizarin red); type: cell-based; conditions: 14 days of culture; treatment 24 h or 48 h after radiation (7 Gy)
Method: Radiation reduces the ability of bone cells to produce bone. […] This is further confirmed when the cells are cultured over a longer period of 28 days.
The data showing assessed bone formation was supported by quantification of new bone deposition.
(**** p<0.000) The synergistic effect continues when treatment is administered more than 24 hours after radiation exposure.

[4] = test system: mesenchymal stem cells; experiment: Alkaline phosphatase (ALP) assay after radiation; type: cell-based; conditions: treatment 24 h or 48 h after ionizing radiation
Description: FIGS. 6A-B show results of an alkaline phosphatase (ALP) assay. The micrographs show assessed bone formation after treatment with P7C3, with cerium oxide nanoparticles (CNPs), or with a combination of P7C3 and CNPs.

[5] = test system: primary and metastatic cancer cell; experiment: Primary and metastatic cancer cell growth; type: cell-based; conditions: at therapeutic levels
Description: This invention combines these two unique approaches as a bi-modal and multifunctional chimeric nanostrategy to combat against ionizing radiation-induced damage.

[6] = test system: post-menopausal osteoporosis; experiment: Post-menopausal osteoporosis in animals; type: in vivo
Description: The above embodiments also relate to the field of medicine for an article of manufacture delivering a prophylactic and therapeutic tissue strategy for osteoporosis. The remarkable increase in average life expectancy during the 20th century ranks as one of society's greatest achievements. As a result, the world's elderly population (aged ≥65 years) continues to grow at an unprecedented rate. As the proportion of the oldest-old (aged >85 years) and length of life expectancy increases, a rise in age-related degenerating diseases, disability, and prolonged dependency is projected. Age-related bone loss and osteoporosis is inevitable in both men and women, and can lead to fragility fractures, immobility, and disability. Currently, bisphosphonate treatment and weight-bearing exercise are commonly used therapeutic approaches, but both with limited long-term success.

[7] = in vivo; cited from earlier work
[8] = test system: bone; conditions: literature refs 15 and 19; cited from earlier work

SMILES: OC(CNc1ccccc1)Cn1c2ccc(Br)cc2c2cc(Br)ccc21 (centres unmarked) [P7C3, aminopropyl carbazole]
- maturation of osteoclasts [1]: stops the maturation of osteoclasts
- fat formation from stem cells [2]: inhibit fat formation
- new bone deposition (micrographs) [3]: does not substantially increase new bone deposition
- alkaline phosphatase expression / conversion of stem cells to osteoblasts [4]: limited upregulation
- primary and metastatic cancer cell growth [5]: significantly reduces
- progression of post-menopausal osteoporosis [6]: reduces the progression
- oral bioavailability [7]: high oral bioavailability
- countermeasure against ionizing radiation-induced bone damage and/or bone loss [8]: effective countermeasure
